Several values for one entry are separate records, joined by “and”; a condition that tells them apart may be missing. Identical values can stand only once.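 In this assay, cells in 96-well plates receive the compound at five concentrations for 48 hours. Endpoints are linearly interpolated between the surrounding concentrations. GI50 marks 50% less growth. Definition used: TGI = concentration required for complete inhibition of growth.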
Columns and labels:
Assay in all cases: inhibition of tumour cell growth, NCI panel, 48 h
CAKI-1 renal = system: CAKI-1 renal
NCI/ADR-RES ovarian = system: NCI/ADR-RES ovarian
SK-OV-3 ovarian = system: SK-OV-3 ovarian
RXF 393 renal = system: RXF 393 renal
NCI-H23 lung = system: NCI-H23 lung
MCF7 breast = system: MCF7 breast
MOLT-4 leukemia = system: MOLT-4 leukemia
SN12C renal = system: SN12C renal
NCI-H522 lung = system: NCI-H522 lung
K-562 leukemia = system: K-562 leukemia

| Compound | GI50 (CAKI-1 renal) [µM] | TGI (CAKI-1 renal) [µM] | GI50 (NCI/ADR-RES ovarian) | TGI (NCI/ADR-RES ovarian) [µM] | GI50 (SK-OV-3 ovarian) [µM] | TGI (SK-OV-3 ovarian) | GI50 (RXF 393 renal) [µM] | TGI (RXF 393 renal) [µM] | GI50 (NCI-H23 lung) | TGI (NCI-H23 lung) | GI50 (MCF7 breast) | TGI (MCF7 breast) [µM] | GI50 (MOLT-4 leukemia) [µM] | TGI (MOLT-4 leukemia) [µM] | GI50 (SN12C renal) [µM] | TGI (SN12C renal) | GI50 (NCI-H522 lung) [µM] | TGI (NCI-H522 lung) [µM] | TGI (K-562 leukemia) [µM] | GI50 (K-562 leukemia) [µM] |
| --- | --- | --- | --- | --- | --- | --- | --- | --- | --- | --- | --- | --- | --- | --- | --- | --- | --- | --- | --- | --- |
| O=C(c1ccccc1)C(Br)C(Br)c1cccc([N+](=O)[O-])c1 (stereo not given) | 1.76 | 3.58 | 2.88 µM | 8.82 | 11 | 22.9 µM | 1.59 | 2.94 | 2.25 µM | 6.45 µM | 1.28 µM | 3.63 | 2.09 | 5.39 | 1.88 | 4.21 µM | 1.11 | 2.57 |  |  |
| C=C1C(=O)OC2C=C(CCC(C)=O)C(C)C(OC(C)=O)CC12 (stereo not given) |  | 23.6 |  |  |  |  |  | 5.42 |  |  |  |  |  | 34.1 |  | 32.1 µM |  |  | 44 |  |
| O=C1CCCC(=O)N1CCc1c[nH]c2ccccc12 |  | > 100 |  |  |  | > 100 µM |  | > 100 |  | > 100 µM |  |  |  | > 100 |  | > 100 µM |  |  | > 100 |  |
| COc1cc(C(O)C(=O)c2nc3ccc([N+](=O)[O-])cc3[nH]c2=O)ccc1O (stereo not given) |  | > 100 |  |  |  | > 100 µM |  |  |  | > 100 µM |  |  |  | > 100 |  | > 100 µM |  | > 100 | > 100 |  |
| CNC(=O)CC1NC(=O)c2csc(n2)-c2ccc(-c3nc(C4=NC(C(=O)N5CCCC5C(N)=O)CO4)cs3)nc2-c2csc(n2)-c2csc(n2)C(C(C)C)NC(=O)CNC(=O)c2csc(n2)C(C(C)C)NC(=O)c2nc1sc2C (stereo not given) | > 25 | > 25 | > 25 µM | > 25 | > 25 | 6.03 µM and > 25 µM | > 25 | > 25 | > 25 µM |  | < 0.001 µM |  | 1.63 | > 25 | > 25 | > 25 µM |  |  | > 25 | > 25 |
| Cc1cc2[nH]c(=O)c3c4ccccc4cn3c2cc1C | 5.33 | 17.8 | 13.6 µM | 31.7 | 18.4 | 34.5 µM | 12 | 27.4 | 14.9 µM | 32.2 µM | 11.8 µM | > 100 | 5.68 | 19.4 | 6.02 | 20.3 µM | 14.5 | 31.1 |  |  |
| Oc1[nH]c2c(Br)cccc2c1C1=Nc2ccccc2/C1=N/OCCN1CCCC1 | 0.332 | 2.24 | 0.793 µM and 0.766 µM |  |  |  | 0.942 | 9.66 | 1.02 µM and 0.959 µM | 4.17 µM and 36.5 µM | 0.781 µM and 0.57 µM | > 100 | 0.354 | 3.18 | 0.74 | 4.99 µM and 8.59 µM | 0.847 | 3.4 |  | 0.424 |
| COc1ccc(CC(=O)NCCc2ccc(OC)c(OC)c2)cc1Br |  | > 100 |  |  |  | > 100 µM |  | > 100 |  | > 100 µM |  |  |  | > 100 |  | > 100 µM |  | > 100 | > 100 |  |
| COc1ccc(C(=O)/C=C/c2ccc3c(c2)OCO3)c(OCc2ccccc2)c1 |  | > 100 |  |  |  | > 100 µM |  | > 100 |  | > 100 µM |  | > 100 |  | > 26.4 |  | > 100 µM |  | > 100 | > 100 |  |
| Cc1c(C(=O)CC(=O)C(=O)Nc2ccc(Cl)cc2)[n+](=O)c2ccccc2n1[O-] |  | > 100 |  |  |  | > 100 µM |  |  |  | > 100 µM |  |  |  | > 100 |  | > 100 µM |  | > 100 | > 100 |  |
| Cc1cc(NS(=O)(=O)c2ccc(NC(=O)c3ccc(Cl)c4c(Nc5ccc(S(=O)(=O)N=C(N)N)cc5)c5ccccc5nc34)cc2)no1 |  |  |  |  |  | > 100 µM |  | 48.6 |  | > 100 µM |  |  |  | 41.6 |  | > 100 µM |  | 61.6 | > 100 |  |
| CC[C@@]1(OC(=O)CN)C(=O)OCc2c1cc1n(c2=O)Cc2cc3c(N)cccc3nc2-1 | < 0.01 | 0.582 | < 0.01 µM | 0.258 |  |  | 0.0352 | 0.476 | < 0.01 µM | 0.0765 µM | < 0.01 µM | > 100 | < 0.01 | 27.7 | < 0.01 | 1.1 µM | < 0.01 | 1.31 |  | < 0.0367 |
| O=C(NCCCCCCNC(=O)OCCSCCn1cc(C(=O)NC(=O)OCc2ccccc2)c(=O)[nH]c1=O)OCCSCCn1cc(C(=O)NC(=O)OCc2ccccc2)c(=O)[nH]c1=O |  | > 100 |  |  |  |  |  | > 100 |  | > 100 µM |  |  |  | > 100 |  | > 100 µM |  | > 100 | > 100 |  |
| O=C(c1ccccc1)[C@@H]1C[C@H](Sc2ccccc2)c2cc(Cl)ccc2N1 |  | > 100 |  |  |  |  |  | 26.5 |  | 64.2 µM |  |  |  | 60.9 |  | 33.7 µM |  | 48.6 | 74.3 |  |
| c1ccc2cc3[s+]snc3cc2c1 |  | > 100 |  |  |  | > 100 µM |  | > 100 |  | > 100 µM |  |  |  | > 100 |  | > 100 µM |  | > 100 | > 100 |  |
| Nc1c([N+](=O)[O-])cc2c3c(cccc13)CC2 |  | > 100 |  | > 100 |  | > 100 µM |  | 74.2 |  | > 100 µM |  |  |  | > 100 |  | > 100 µM |  | > 100 | > 100 |  |
| COc1ccc(/C(=N\O)c2cc(C)c(OC)c(C)c2)cc1O |  |  | < 0.01 µM | > 100 | 0.0166 | > 100 µM | < 0.01 | > 100 | 0.0314 µM | > 100 µM | < 0.01 µM | > 100 | 0.052 | > 100 | 0.0484 | > 100 µM | < 0.01 | 0.0101 |  |  |
| O=C(O)CCC(NC(=O)c1ccccc1)C(=O)O (stereo not given) |  | > 100 |  |  |  | > 100 µM |  | > 100 |  | > 100 µM |  |  |  | > 100 |  | > 100 µM |  | > 100 | > 100 |  |
| COC(=O)NN=C1C(C)(C)C(=O)C1(C)C |  |  |  |  |  | > 100 µM |  | > 100 |  | > 100 µM |  |  |  | > 100 |  |  |  | > 100 | > 100 |  |
| CC(C)(CN1CCCCC1)C(=O)/C=C/c1ccc(Cl)cc1 |  |  |  |  |  | 23.5 µM |  | 13.8 |  | 6.76 µM |  |  |  | 5.11 |  | 7.24 µM |  | 9.9 | 12.3 |  |
| O=C1C2C=CC(C2)C(c2ccc(O)cc2)N1O (stereo not given) |  | > 100 |  |  |  | > 100 µM |  |  |  | > 100 µM |  |  |  | > 100 |  | > 100 µM |  | > 100 | > 100 |  |

From PubChem BioAssay (NCI)
